From US20260265055A1, “Sulfine-Based Compounds for Generating Hydrogen Persulfide” (Brown University, priority 2023, published 2026)

Experiments:
[1] = SSP4 fluorescence assay to determine generation of H2S2 in buffer
Text: To further evaluate the specificity of TTS in converting H2S to H2S2, SSP4 was used to monitor the formation of H2S2 in this reaction and the results were compared with a series of controls. Details of the SSP4 experiments are provided later herein. SSP4 is a well-established fluorescent sensor for sulfane sulfurs including H2S2. See Shieh, M. et al., Shining a light on SSP4: a comprehensive analysis and biological applications for the detection of sulfane sulfurs. Redox Biol. 2022, 56, 102433. […] Without wishing to be bound by scientific theory, it is believed that thiols would compete with SSP4 to react with H2S2, thereby causing decreased signals.
SSP4 was dissolved in DMSO to obtain a 200 μM stock solution. CTAB was dissolved in ethanol to yield a 2 mM stock solution. TTS and TT were dissolved in DMSO to make 1 mM stock solutions. Na2S, Na2S2, and L-cysteine were prepared in MilliQ H2O to obtain stock solutions at 2 mM, 1 mM, and 4 mM, respectively. 50 mM PBS buffer was added to individual wells of a black polystyrene, flat-bottomed clear 96-well plate, followed by TTS (25 μM) or TT (25 μM), and Na2S (50 μM), cysteine (100 μM), or Na2S2 (25 μM). For the interference assay, TTS or TT (25 μM) were added to wells with or without Na2S (50 μM). Samples were mixed by pipetting up and down and incubated in the dark at room temperature (rt) for 30 min. Next, CTAB (50 μM) was added to all wells followed by SSP4 (5 μM), and samples were mixed by pipetting up and down. The final volume was 200 μL in each well. Samples were then incubated in the dark at room temperature for another 30 min before being measured on a Molecular Devices SpectraMax iD3 Multi-Mode Microplate Reader (emission 525 nm; excitation 485 nm; integration time […], low PMT sensitivity, attenuation 1, read height 1.00 mm).

[2] = Kinetic study of the reaction between TTS and H2S (UV-Vis, 380 nm); format: physicochemical; set-up: unit not given here; conditions: TTS 50 μM, Na2S 5 mM, PBS pH 7.4, room temperature; average of 3 trials
Method: FIG. 1A depicts UV-Vis absorbance spectra changes of the reaction between TTS (100 μM) and H2S (200 μM) over 1 min intervals. FIG. 1B depicts representative time-dependent [TTS] changes based on UV-Vis absorption changes at 380 nm of the reaction between TTS (50 μM) and Na2S (5 mM). FIG. 1C depicts representative time-dependent −ln([TTS]/[TTS]0) changes based on UV-Vis absorption changes at 380 nm of the reaction between TTS (50 μM) and Na2S (5 mM). […] See Kolb, H. C. et al., Click chemistry: diverse chemical function from a few good reactions. Angew. Chem. Int. Ed. 2001, 40, 2004-2021.
Kinetic study of the reaction between TTS and H2S: TTS (10 μL, 10 mM in DMSO solution, final concentration=50 μM) and Na2S (20 μL, 500 mM in MilliQ H2O, final concentration=5 mM), reacted in PBS buffer (50 mM, pH=7.4) (2 mL) at room temperature. The kinetics were detected by UV-Vis absorbance spectrum (λ=380 nm) based on the decrease of TTS. This reaction can be seen as a pseudo-first order reaction; the second-order k constant (k) was calculated by: […]
The final k reported above was calculated by taking the average of the k values from 3 trials. • To determine [TTS] at each time point: […]

HeLa cells = assay: Live cell imaging of H2S2 formation with SSP4; format: cell-based; conditions: 30 min
Method: HeLa cells were seeded at ~7000 cells/well in a 96-well clear flat-bottomed BioLite plate (ThermoFisher Scientific, #130188) in DMEM/F12 (1:1) (Gibco, Invitrogen, #11330-032) medium supplemented with 10% fetal bovine serum (FBS) at 37° C., 5% CO2 overnight.
Preparation before cell treatment: Na2S and Na2S2 stocks were prepared at 10 mM in sterile 1×PBS. TTS and TT were prepared at 10 mM concentrations in DMSO. They were then diluted to 50 μM concentrations in serum-free Fluorobrite DMEM in individual Eppendorf tubes (0.5% DMSO). Na2S (final concentration=100 μM) was added to the Eppendorf tube containing Fluorobrite DMEM and TTS or TT immediately before being added to the cells. Compounds were mixed by pipetting up and down prior to cell addition.
Cell treatment: Culturing media was aspirated from all wells, and cells were washed twice with 1×PBS. Compounds were added to cells (200 μL/well) and incubated for 30 min at 37° C., 5% CO2. While cells were incubating, SSP4 treatment was prepared by first adding 5 mM CTAB in ethanol to Fluorobrite DMEM followed by 6.125 mM SSP4 in DMSO to final concentrations of 100 μM and 5 μM, respectively, in a tube. The final volume was 5 mL (0.08% DMSO). Compounds were mixed by pipetting up and down prior to cell addition. After incubation, media was aspirated, and cells were washed twice with 1×PBS. SSP4 treatment was added to all wells (100 μL/well), and cells were incubated for 30 min at 37° C., 5% CO2 for 30 min. Media was then aspirated, and cells were washed three times with 1×PBS. Fluorobrite DMEM was added to all wells before imaging on the Keyence All-in-One Fluorescence Microscope (BZ-X810) (excitation: 470/40 nm; emission: 525/50 nm).
As shown in FIGS. 4(A)-(D), HeLa cells were treated with TTS, TTS+H2S, or TT for 30 min before the fluorescent sensor SSP4 was applied to the cells to monitor the formation of H2S2. […] Na2S2 was used as the positive control in this study (FIG. 4D). Other control studies including TT+H2S, H2S only, and SSP4 only were also performed. […] FIG. 4H is a graph of fluorescence intensities of SSP4 staining. Data are mean values ±SEM calculated using ImageJ. (n=9, where three different images were obtained from each of three samples and quantified).

Structure (SMILES): COC(=O)c1ccc(=S=O)sc1 [TTS, 2H-thiopyran-2-thione sulfine]
- SSP4 fluorescence in interference experiments with thiols ([1]; 25 μM TTS + 50 μM Na2S + 200 μM Cys or 1 mM GSH): decreased but still significant fluorescence
- SSP4 fluorescence response (H2S2 formation) ([1]; 25 μM compound + 50 μM Na2S (H2S), PBS, SSP4 5 μM): significant fluorescence response
- SSP4 fluorescence response (sulfane sulfur formation) ([1]; 25 μM compound + 100 μM Cys, SSP4 5 μM): No fluorescence
- SSP4 fluorescence response (H2S2 formation) ([1]; 25 μM compound only, SSP4 5 μM): No fluorescence
- second-order rate constant k2 of the reaction between TTS and H2S [2]: 2.7
- SSP4 fluorescence in HeLa cells (HeLa cells; compound 50 μM + Na2S 100 μM): Significant green fluorescence
- SSP4 fluorescence in HeLa cells (HeLa cells; compound only): did not show obvious fluorescence
